Data: patent publication US11491168B2, “Combination of Bcl-2/Bcl-xL inhibitors and chemotherapeutic agent and use thereof” (ASCENTAGE PHARMA (SUZHOU) CO., LTD., priority 2019, dated 2022)
Where “and” joins values, the source holds several entries; their conditions need not be identical. Equal entries are not always repeated. Where two headings read alike, the source gives them in different places.

Assays:
[1] = activity compared with first generation BCL-2 inhibitor
[2] = system: human PC3 cell line prostate cancer xenograft; test: PC3 prostate cancer xenograft model; details: Compound 15 100 mg/kg; docetaxel 8 mg/kg
Method: (§4) Subcutaneous xenograft tumor model of human cancer was established in immunodeficient mouse by cell inoculation: tumor cells in logarithmic growth phase were collected, counted, and then re-suspended in 1×PBS. The concentration of the cell suspension was adjusted to 2.5-5×10^7/mL. Tumor cells were inoculated subcutaneously in the right back of the immunized normal mouse with a 1 mL syringe (4 gauge needle) at 5-10×10^6/0.2 mL/mouse.
(§5) Animal weight and tumor size were measured twice a week during the study. The animals were checked daily for morbility and etc. […] Mortality and clinical signs observed during the study were recorded in the raw data. […]
(§6) Tumor volume (TV) was calculated as: TV=a×b^2/2 wherein a and b represent the measured length and width of tumor, respectively.
(§7) Relative tumor volume (RTV) was calculated as: RTV=Vt/V1 wherein V1 was the tumor volume on the first day of dosing, and Vt was the tumor volume measured on day t after dosing.
(§8) Relative tumor proliferation rate T/C (%), as an indication of anti-tumor effectiveness, was calculated as: Relative tumor proliferation rate T/C (%)=(TRTV/CRTV)×100%, wherein TRTV was RTV in treatment group, and CRTV was RTV in vehicle control group. […]

platelet = platelet toxicity; details: versus first-generation BCL-2 inhibitors
[3] = system: MDA-MB-231 triple-negative breast cancer tumor cell line; test: WST (CCK-8) anti-proliferation assay
Method: Cell plating: Anti-proliferation effects were detected by a CCK-8 (Cell Counting Kit-8) assay based on water soluble tetrazolium salt (WST).
The cells were seeded in 96-well plates. 95 μL complete medium was added to each negative control group, and 95 μL cell suspension in complete medium was added at a density of 5-10×10^4 cells/well to each well to be tested.
The MGC80-3 and SW620 used in the examples were purchased from the Cell Bank of the Shanghai Institute of Biochemistry and Cell Biology, Chinese Academy of Sciences. MDA-MB-231, PC-3, and NCI-H146 were available from the American Type Culture Collection (ATCC) under accession Nos. HTB-26, CRL-1435, and HTB-173, respectively. It should be noted that the cells used in the present disclosure are all available from ATCC. […]
Reading: At the end of the culture, for adherent cells, the old solution in the test wells was removed and 100 μl/well CCK-8 test solution (the corresponding medium containing 10% CCK-8, 5% FBS) was added. […]
The OD value was measured using a microplate reader (SpectraMax Plus 384, Molecular Devices, LLC., US) A450 nm. […] The percentage of cell viability was calculated by the following formula: (O.D. test well−O.D. blank control well)/(O.D. cell control well−O.D. blank control well)×100%.
The IC50 was calculated using the nonlinear regression data analysis method of Graphpad Prism 6.0 software.

Bcl-w = Bcl-w (Homo sapiens, UniProt Q92843); test: binding to Bcl-w protein
Chain of Bcl-w (Q92843 whole entry): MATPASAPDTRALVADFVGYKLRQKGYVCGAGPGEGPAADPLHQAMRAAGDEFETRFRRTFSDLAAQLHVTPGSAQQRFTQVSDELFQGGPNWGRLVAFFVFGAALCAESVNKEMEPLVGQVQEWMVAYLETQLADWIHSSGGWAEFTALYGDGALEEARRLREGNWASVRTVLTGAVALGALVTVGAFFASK

NCI-N87 xenograft [4] = test: NCI-N87 xenograft model, Compound 15 with 5-FU; details: for mouse tumor volume upon the end point: Compound 15 50 mg/kg qd 10 days, 5-FU 25 mg/kg once a week for two weeks
metastatic solid tumors [5] = test: U.S. clinical trial as of Dec. 21, 2019; assay type: in vivo
Method: Three clinical trials (Phase I or Phase I/II) with similar study designs were conducted in the United States, Australia, and China. During the dose escalation phase, the patient received Compound 15 (10-400 mg) twice weekly or weekly intravenously for a 28-day treatment cycle. Tumor response assessment was performed every 2 cycles according to RECIST 1.1 criteria. The purpose of the study was to assess safety, maximum tolerated dose (MTD)/recommended phase II dose (RP2D), pharmacokinetics (PK), pharmacodynamics (PD), and the preliminary efficacy of Compound 15 as a single agent in metastatic solid tumors.
As of Dec. 21, 2019, 42 US patients with metastatic solid tumors (Table A) received Compound 15 treatment ranging from 10-400 mg in at least one 28-day cycle. The patients were treated in 2 cohorts. 31 patients in cohort 1 received Compound 15 twice a week (BIW) by intravenous (IV) infusion at a dose of 10 mg, 20 mg, 40 mg, 80 mg, 160 mg, 240 mg, 320 mg, or 400 mg; 11 patients in cohort 2 received Compound 15 once a week (QW) by IV infusion at a dose of 240 mg or 320 mg.

Bcl-xl = Bcl-xl (Homo sapiens, UniProt Q07817); test: binding to Bcl-xl protein
Chain of Bcl-xl (Q07817 whole entry): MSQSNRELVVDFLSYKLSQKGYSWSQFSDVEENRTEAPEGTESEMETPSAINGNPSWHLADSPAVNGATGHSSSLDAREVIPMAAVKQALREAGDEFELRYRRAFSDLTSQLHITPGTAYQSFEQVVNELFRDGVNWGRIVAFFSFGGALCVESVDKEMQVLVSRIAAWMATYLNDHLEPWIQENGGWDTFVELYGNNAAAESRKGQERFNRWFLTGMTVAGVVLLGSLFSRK

[6] = system: human SW620 cell line colon cancer xenograft; test: SW620 colon cancer xenograft model; assay type: in vivo, mice; details: single agents: Compound 15 100 mg/kg; irinotecan 50 mg/kg
Method: as §4, §5, §6, §7, §8

[7] = system: subcutaneous NCI-H146 lung cancer xenograft; test: NCI-H146 lung cancer xenograft model (Example 8); assay type: in vivo, female SCID mice; details: for RTV @day 21: Compound 15 20 mg/kg i.v. BIW, Irinotecan 5 mg/kg i.p. QW, Paclitaxel 10 mg/kg i.v. QW, Cisplatin 1 mg/kg i.p. Q4D; for mRECIST_best: best response during the treatment, PR partial response, CR complete response, SD stable disease, PD progressive disease; for T/C (%) @ day 21: doses as Table 6; for mRECIST_last: response on the last day of treatment, PR, CR, SD, PD
Method: The therapeutic efficacy of compound 15 alone and in multiple combinations in the treatment of subcutaneous NCI-H146 lung cancer xenograft model was evaluated.
1×10^7 NCI-H146 tumor cells were pre-treated in 0.1 mL of phosphate buffer and Matrigel (7:3) and inoculated into female SCID mice. The day of randomization was denoted as day 1. The treatment was initiated on day 1. The study was conducted in 8 groups of mice. See Table 6 for the mode of administration and doses. The entire study was taken down on day 21. The study was conducted in 40 mice. All the animals were randomized into 8 experimental groups.

[8] = system: SCLC patient-derived xenograft LU5188; test: LU5188 SCLC patient-derived xenograft; assay type: in vivo, female NOD.SCID mice; details: for T/C (%) @ day 21: doses as Table 3; for RTV @day 21: mean ± SEM, Compound 15 50 mg/kg i.v. BIW, Irinotecan 10 mg/kg i.p. Q4D, Paclitaxel 10 mg/kg i.v. Q4D
Method: (§1) The therapeutic efficacy of compound 15 alone and its multiple combinations in the treatment of subcutaneous HuPrime® Lung cancer xenograft model LU5250 and LU5188 in female NOD.SCID mice was evaluated.
(§2) Either LU5250 or LU5188 tumor mass with rough size of 3×3×3 mm^3 were inoculated into female NOD.SCID mice and the day of randomization was denoted as day 1. The treatment was initiated on day 1 when tumors approximated a mean volume 136 mm^3 of LU5250 and 155 mm^3 of LU5188, respectively. There were 6 groups enrolled in each model eventually. See Table 3 for the mode of administration and doses. Both models were taken down on day 21.

metastatic solid tumors [9] = test: Phase I or I/II clinical trials, pooled results as of Jan. 31, 2019; assay type: in vivo
Method: Three clinical trials (Phase I or Phase I/II) with similar study designs were conducted in the United States, Australia, and China. […] Tumor response assessment was performed every 2 cycles according to RECIST 1.1 criteria.

Mcl-1 = Mcl-1 (Homo sapiens, UniProt Q07820); test: binding to Mcl-1
Chain of Mcl-1 (Q07820 whole entry): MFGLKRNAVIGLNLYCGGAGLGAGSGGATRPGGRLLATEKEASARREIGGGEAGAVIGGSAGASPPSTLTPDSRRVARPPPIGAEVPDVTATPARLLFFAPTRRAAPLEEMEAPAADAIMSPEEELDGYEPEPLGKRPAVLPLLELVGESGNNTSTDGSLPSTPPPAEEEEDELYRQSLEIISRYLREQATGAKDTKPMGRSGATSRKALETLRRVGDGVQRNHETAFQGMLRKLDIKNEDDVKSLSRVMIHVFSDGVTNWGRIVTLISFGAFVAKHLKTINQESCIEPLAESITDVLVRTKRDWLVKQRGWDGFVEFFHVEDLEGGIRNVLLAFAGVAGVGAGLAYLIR

NCI-N87 xenograft [10] = test: NCI-N87 xenograft model, Compound 15 single agent; assay type: in vivo, nude mice; details: for mouse tumor volume upon the end point: tail vein injection, 10 consecutive days
Method: The NCI-N87 tumor-bearing mice were treated with different doses of Compound 15 by tail vein injection for 10 consecutive days.
The inventors extracted proteins from the removed tumor tissues and prepared tissue sections.

Bcl-2 = Bcl-2 (Homo sapiens, UniProt P10415); test: binding to Bcl-2 protein
Chain of Bcl-2 (P10415 whole entry): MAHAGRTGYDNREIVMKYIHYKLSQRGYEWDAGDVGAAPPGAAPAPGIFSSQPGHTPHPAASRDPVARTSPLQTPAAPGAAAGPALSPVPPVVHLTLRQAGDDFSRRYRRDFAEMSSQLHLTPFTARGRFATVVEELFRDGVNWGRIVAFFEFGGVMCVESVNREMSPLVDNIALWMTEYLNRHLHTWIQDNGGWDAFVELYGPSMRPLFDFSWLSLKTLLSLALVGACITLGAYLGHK

[11] = system: SCLC patient-derived xenograft LU5250; test: LU5250 SCLC patient-derived xenograft; assay type: in vivo, female NOD.SCID mice; details: for T/C (%) @ day 21: doses as Table 3; for RTV @day 21: mean ± SEM, Compound 15 50 mg/kg i.v. BIW, Irinotecan 10 mg/kg i.p. Q4D, Paclitaxel 10 mg/kg i.v. Q4D
Method: as §1, §2

[12] = system: human MGC80-3 cell line gastric cancer xenograft; test: MGC80-3 gastric cancer xenograft model
Method: as §4
Animal weight and tumor size were measured twice a week during the study. The animals were checked daily for morbility and etc. At the time of routine monitoring, the animal were checked for any effects of tumor growth and treatments on behaviors such as mobility, food and water consumption, body weight gain/loss, eyes, hairing and any other abnormalities. Mortality and clinical signs observed during the study were recorded in the raw data. The dosing of the drugs and the measurement of mouse weight and tumor volume were all conducted in a laminar flow cabinet. According to requirements of the study protocol, plasma and tumor tissue were collected, weighed and photographed at the end of last dosing. Plasma and tumor samples were frozen at −80° C. for later use.
as §6, §7
Relative tumor proliferation rate T/C (%), as an indication of anti-tumor effectiveness, was calculated as: Relative tumor proliferation rate T/C (%)=(TRTV/CRTV)×100%, wherein TRTV was RTV in treatment group, and CRTV was RTV in vehicle control group.
Tumor remission rate (%) was calculated by dividing the number of tumor bearing mice that show SD (stable disease), PR (partial regression) and CR (complete regression) after treatment by the total number of mice in the group×100%. Change of body weight (%)=(measured body weight−body weight at randomization)/body weight at randomization×100%.

NCI-N87 cells = test: AnnexinV/PI staining apoptosis, NCI-N87; assay type: cell-based; details: NCI-N87, 48 hours; Compound 31 0.3 μM, 5-FU 3 μM
Method: (§3) The inventors chose to combine Compound 31 with one of the most common chemotherapeutic drugs in clinic, 5-fluorouracil (5-FU). In order to investigate the effect and the potential mechanisms of Compound 31 and 5-FU on the growth of gastric cancer cells, the inventors used the AnnexinV/PI staining to detect the apoptosis of two gastric cancer cells, AGS and NCI-N87, 48 hours after the treatment with Compound 31 (0.3 μM), 5-FU (3 μM), and the combination at specified concentrations. […] In NCI-N87 cells, the combination group also achieved a higher apoptosis rate than the mono therapy groups, Compound 31 or 5-FU as a single agent leading to apoptosis rates of 24% or 18% while the combination group reaching an apoptosis rate of 46% (FIG. 29(a)).

AGS cells = test: AnnexinV/PI staining apoptosis, AGS; assay type: cell-based; details: 48 hours, Compound 31 0.3 μM, 5-FU 3 μM
Method: as §3

[13] = FIG. 6: Compound 15 100 mg/kg, docetaxel 12 mg/kg, cisplatin 3 mg/kg

## Cc1c(S(C)(=O)=O)c(-c2cc(F)cc(N3CCN(c4ccc(NS(=O)(=O)c5ccc(N[C@H](CCN6CCC(C(=O)OCCP(=O)(O)O)CC6)CSc6ccccc6)c(S(=O)(=O)C(F)(F)F)c5)cc4)CC3)c2)c(-c2ccc(Cl)cc2)n1C(C)C [Compound 15, (R)-2-(1-(3-(4-(N-(4-(4-(3-(2-(4-chlorophenyl)-1-isopropyl-5-methyl-4-(methylsulfonyl)-1H-pyrrol-3-yl)-5-fluorophenyl)piperazin-1-yl)phenyl)sulfamoyl)-2-(trifluoromethylsulfonyl)phenylamino)-4-(phenylthio)butyl)piperidine-4-carbonyloxy)ethylphosphonic acid]
[1]
  activity relative to the first generation BCL-2 inhibitor: about 10 times
[2]
  T/C (%): 84.4%
platelet
  platelet toxicity reduced: 10-30 times
[3]; Homo sapiens, MDA-MB-231, 72 h, read-out: IC50 (A alone), MDA-MB-231, 72 hours
  IC50: 2600 nM
[3]; read-out: IC50 (A alone), MDA-MB-231, 72 hours
  IC50: 4550 nM
Bcl-w
  IC50: 9.3 nM
NCI-N87 xenograft [4]
  mouse tumor volume upon the end point: 1600 mm^3
NCI-N87 xenograft [4]; mouse, in vivo
  mouse body weight: rebounded after a brief weight loss
Metastatic solid tumors [5]; 36 patients with post-baseline tumor measurements
  patients with partial response (PR): 3
Metastatic solid tumors [5]; QW
  MTD/RP2D: 240 mg
Metastatic solid tumors [5]; SCLC patient #002-001, 40 mg BIW
  duration of PR: 19 cycles
Metastatic solid tumors [5]; human, in vivo
  accumulation: No significant accumulation
  time to resolution of platelet drop / thrombocytopenia: 2 to 6 days
Metastatic solid tumors [5]; human, in vivo, 28 day
  TRAE: alanine aminotransferase increased: 7.1%
  TRAE: aspartate aminotransferase increased: 9.5%
  TRAE: platelet count decreased: 14.3%
  patients with ≥G3 treatment emergent adverse events (TRAEs): 26.2%
Metastatic solid tumors [5]; human, in vivo, iv
  Cmax and AUC versus dose: approximately dose proportional
Bcl-xl
  IC50: 4.4 nM
[6]
  T/C (%): 60.6%
[7]
  RTV @day 21: 2.0 ± 0.3
  T/C (%) @ day 21: 70.0%
[7]; progressive disease
  mRECIST_best: 1/5 PD
  mRECIST_last: 4/5 PD
[7]; stable disease
  mRECIST_best: 4/5 SD,
  mRECIST_last: 1/5 SD,
[8]
  T/C (%) @ day 21: 125.4%
  RTV @day 21: 17.05 ± 6.59
Metastatic solid tumors [9]; 19 evaluated SCLC patients, US patient, dose of 40 mg
  patients with partial remission (PR): 1
Metastatic solid tumors [9]; 44 patients
  grade 3/4 AE: decreased lymphocyte count: 6.8%
  grade 3/4 AE: elevated lipase: 6.8%
  grade 3/4 AE: hyponatremia: 11.4%
Metastatic solid tumors [9]; 44 patients, 7 dose levels, i.v. twice weekly or weekly
  tolerability: well tolerated at all tested dose levels
Metastatic solid tumors [9]; Australian studies, e.g. CRC
  cases of stable disease in other tumor types: 5
Metastatic solid tumors [9]; dose range of 10-160 mg
  AUC and Cmax on day 1 versus dose: increased proportionally with dose
Metastatic solid tumors [9]; pooled analysis
  MTD: had not been reached
Mcl-1
  binding to Mcl-1: binds weakly
NCI-N87 xenograft [10]; 25 mg/kg
  mouse tumor volume upon the end point: 700 mm^3
NCI-N87 xenograft [10]; 50 mg/kg
  mouse tumor volume upon the end point: 800 mm^3
NCI-N87 xenograft [10]; 100 mg/kg group
  percentage of Ki67-positive cells: significantly lower than other groups
NCI-N87 xenograft [10]; 100 mg/kg
  mouse tumor volume upon the end point: about 400 mm^3
NCI-N87 xenograft [10]; 25, 50, 100 mg/kg
  cleaved-caspase3 and PARP-1 cleavage bands in the tumor tissue: gradually increased as the dose increased
NCI-N87 xenograft [10]; among the four groups
  mouse body weight: no significant difference in body weight
NCI-N87 xenograft [10]; as the dosing concentration increased
  weight and size of the xenograft tumors: showed an evident trend of reduction
Bcl-2
  IC50: 1.6 nM
[11]
  T/C (%) @ day 21: 136.8%
  RTV @day 21: 9.75 ± 3.77

## N.N.[Cl][Pt][Cl] [cisplatin]
[7]
  RTV @day 21: 2.6 ± 0.2
  mRECIST_best: 2/5 SD, and 3/5 PD
  T/C (%) @ day 21: 90.2%
  mRECIST_last: 5/5 PD
[12]; [13]
  T/C (%): 65.0%

## CC(=O)O[C@@]12CO[C@@H]1C[C@H](O)[C@@]1(C)C(=O)[C@H](O)C3=C(C)[C@@H](OC(=O)[C@H](O)[C@@H](NC(=O)OC(C)(C)C)c4ccccc4)C[C@@](O)([C@@H](OC(=O)c4ccccc4)[C@H]21)C3(C)C [docetaxel]
[2]
  T/C (%): 72.4%
[12]; FIG. 5: Compound 15 100 mg/kg, docetaxel 8 mg/kg
  T/C (%): 54.5%
[12]; [13]
  T/C (%): 39.0%

## O=c1[nH]cc(F)c(=O)[nH]1 [Compound 5-FU, 5-fluorouracil, reference compound]
NCI-N87 cells
  apoptosis rate: 18%
NCI-N87 xenograft [4]
  mouse tumor volume upon the end point: 2200 mm^3
AGS cells
  apoptosis rate: ~15%

## CCc1c2c(nc3ccc(OC(=O)N4CCC(N5CCCCC5)CC4)cc13)-c1cc3c(c(=O)n1C2)COC(=O)[C@]3(O)CC [Irinotecan, irinotecan]
[6]
  T/C (%): 29.9%
[7]
  RTV @day 21: 1.0 ± 0.2
  mRECIST_best: 3/5 PR and 2/5 SD
  T/C (%) @ day 21: 34.4%
  mRECIST_last: 1/5 PR, and 3/5 SD, and 1/5 PD
[8]
  T/C (%) @ day 21: 61.8%
  RTV @day 21: 8.41 ± 2.49
[11]
  T/C (%) @ day 21: 26.9%
  RTV @day 21: 1.92 ± 0.24

## CC(=O)O[C@H]1C(=O)[C@@]2(C)[C@H]([C@H](OC(=O)c3ccccc3)[C@]3(O)C[C@H](OC(=O)[C@H](O)[C@@H](NC(=O)c4ccccc4)c4ccccc4)C(C)=C1C3(C)C)[C@]1(OC(C)=O)CO[C@@H]1C[C@@H]2O [Paclitaxel, paclitaxel]
[7]
  RTV @day 21: 1.4 ± 0.4
  mRECIST_best: 3/5 PR, and 2/5 SD
  T/C (%) @ day 21: 48.4%
  mRECIST_last: 3/5 SD, and 2/5 PD
[8]
  T/C (%) @ day 21: 151.1%
  RTV @day 21: 20.55 ± 3.20
[11]
  T/C (%) @ day 21: 32.6%
  RTV @day 21: 2.33 ± 0.13
